Target: T1, KMO mouse enzyme (Mus musculus, UniProt Q91WN4)
T1 construct: KMO enzyme prepared at Evotec from mouse liver (4-6 weeks old) via mitochondria isolation; from tissue; host or cells: mouse liver (4-6 weeks old), isolated mitochondria, prepared at Evotec
Test: KMO mouse enzyme assay: L-Kynurenine hydroxylation to 3-Hydroxy-Kynurenine by LC/MS (protocols substantially similar to Example 33)
Assay type: biochemical
Conditions: compound at 30 µM; KMO enzyme from mouse liver mitochondria; 100 μM L-Kynurenine; 40 min at RT
Method: A method of monitoring L-Kynurenine (KYN) hydroxylation to form 3-Hydroxy-Kynurenine (3OH-KYN) by LC/MS is described. Product is quantified by multiple reaction monitoring (MRM method). […]
Using the assay protocols substantially similar to those of Example 33, the following compounds were tested.

T1 sequence (Q91WN4 whole entry): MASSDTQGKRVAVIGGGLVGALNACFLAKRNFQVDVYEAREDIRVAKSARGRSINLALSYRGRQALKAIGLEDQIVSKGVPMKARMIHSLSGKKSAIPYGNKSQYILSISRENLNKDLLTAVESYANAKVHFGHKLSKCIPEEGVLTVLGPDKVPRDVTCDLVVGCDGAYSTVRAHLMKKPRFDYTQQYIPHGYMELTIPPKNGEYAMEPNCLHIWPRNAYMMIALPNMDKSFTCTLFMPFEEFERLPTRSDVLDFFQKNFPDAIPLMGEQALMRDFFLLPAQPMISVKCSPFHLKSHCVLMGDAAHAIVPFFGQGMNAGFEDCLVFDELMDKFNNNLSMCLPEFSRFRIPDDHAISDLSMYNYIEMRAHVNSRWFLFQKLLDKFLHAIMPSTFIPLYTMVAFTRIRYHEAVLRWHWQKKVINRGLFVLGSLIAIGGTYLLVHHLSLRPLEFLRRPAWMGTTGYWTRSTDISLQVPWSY

- inhibition at 30 µM: 103%
Structure (SMILES): CC(=O)OC(C)OC(=O)[C@H]1C[C@@H]1C(=O)c1ccc(Cl)c(Cl)c1 (stereo partly drawn) [1-{[(1S,2S)-2-[(3,4-Dichlorophenyl)carbonyl]cyclopropyl]carbonyloxy}ethyl acetate]
